Measured values from PMC7542481, “Synthesis of Amino Acid Schiff Base Nickel (II) Complexes as Potential Anticancer Drugs In Vitro” (Bioinorganic Chemistry and Applications, 2020).

What was measured:
[1] = test system: hepatocellular carcinoma HepG2; assay: MTT cytotoxicity assay, HepG2; format: cell-based, human; settings: treatment 48 h
Description: (§1) 3-(4,5-Dimethylthiazol-2-yl)-2, 5-diphenyltetrazolium bromide (MTT) method was used to assay the cytotoxicity in vitro. Complexes 1–3, ligands (L1, L2, and L3), Ni (CH3COO)2, and cisplatin were dissolved in DMSO at the concentration of 20 mM as a stock solution for subsequent testing. Four different cancer cell lines (MCF-7, SGC-7901, Eca-109, and HepG2) and one normal cell line (HSF) were seeded in 96-well and cultured at 37 °C in 5% CO2. After 24 h, the medium was replaced by different concentrations of complex and incubated for 48 h. 10 μL MTT dye (5 mg/mL) was added to each well and incubated for another 4 h. After that, the medium was removed and DMSO (100 μL) was added to solubilize the MTT formazan. A microplate reader (Bio-Rad iMark™) was used to measure the OD value of each well at a wavelength of 490 nm. Each experiment was repeated at least three times, and GraphPad Prism 5.0 was used to analyze the IC50 values.

[2] = test system: esophageal cancer Eca-109; assay: MTT cytotoxicity assay, Eca-109; format: cell-based, human; settings: treatment 48 h
Description: as §1

breast cancer MCF-7 = assay: MTT cytotoxicity assay, MCF-7; format: cell-based, human; settings: treatment 48 h
Description: as §1

gastric cancer SGC-7901 = assay: MTT cytotoxicity assay, SGC-7901; format: cell-based, human; settings: treatment 48 h
Description: as §1

Beclin-1 = assay: Western blot assay, Beclin-1; format: cell-based, human; settings: Eca-109, 24 h, concentration-dependent
Description: (§2) After incubation with different concentrations of complex 2, cells were harvested in a radioimmunoprecipitation assay (RIPA) buffer with protease inhibitors and phosphatase inhibitors. BCA Protein Assay Kit was used to determine the protein concentration. Then, the expression levels of proteins associated with Bcl-2 family and autophagy were measured by Western blot assay.

Eca-109 cells [3] = assay: Mitochondrial membrane potential by JC-1 staining, flow cytometry; format: cell-based, human; settings: 24 h, control 4.69%
Description: After being treated with different concentrations of complex 2, the cells were collected and incubated in 500 μL PBS containing 10 μg/mL JC-1 for 20 min at 37°C in the dark. Then, the cells were resuspended in PBS and analyzed by flow cytometry (BD FACS Aria III).

Eca-109 cells [4] = assay: Annexin V-PE/7-AAD staining apoptosis assay by flow cytometry (with or without NAC or 3-MA pretreatment); format: cell-based, human; settings: for percentage of apoptotic cells: 24 h, control 7.30%
Description: N-acetyl-L-cysteine (NAC), as a ROS scavenger, was added in a medium for 1 h before the addition of complex 2 to examine the effect of ROS on cell viability. The percentage of apoptotic cells was detected by Annexin V-PE/7-AAD staining assay after complex 2 treatment with or without NAC.
Different stages of apoptosis induced by complex 2 were determined by Annexin V-PE and 7-AAD staining according to the manufacture's protocol for the Annexin V Apoptosis Detection Kit (BD, Bioscience). Eca-109 cells were seeded in a 6-well plate with a density of 2 × 10^5 cells per well and cultured at 37°C in 5% CO2 for 24 h. Then, different concentrations of complex 2 were added into the above well and incubated for another 24 h. The cells were resuspended in binding buffer, stained with 5 μL Annexin V-PE and 5 μL 7-AAD at room temperature for 15 min, and analyzed using the flow cytometer (BD FACS Aria III).
3-MA, as an autophagic inhibitor, was added in a medium for 1 h before the addition of complex 2 to examine the effect of autophagy on cell viability. The percentage of apoptotic cells was detected by Annexin V-PE/7-AAD staining assay after complex 2 treatment with or without 3-MA.

Eca-109 cells [5] = assay: Cell cycle arrest assay, PI staining, flow cytometry; format: cell-based, human; settings: for percentage of cells in S phase / percentage in the cell at the G2/M phase / percentage in the cell at the G0/G1 phase: 24 h; for percentage in the cell at the G2/M phase: control 6.35%; for percentage in the cell at the G0/G1 phase: control 63.82%
Description: After treatment with different concentrations of complex 2, the cells were collected and fixed with 70% ethanol for the night. Then, the cells were incubated in 500 μL PBS containing Triton X-100 (0.1% v/v), RNase A (0.2 mg/mL), and propidium iodide (PI, 0.02 mg/mL) for 15 min. Then, the cells were analyzed by flow cytometry (BD FACS Aria III).

Bcl-2 = assay: Western blot assay, Bcl-2; format: cell-based, human; settings: Eca-109, 24 h, concentration-dependent
Description: as §2

Bax = assay: Western blot assay, Bax; format: cell-based, human; settings: Eca-109, 24 h, concentration-dependent
Description: as §2

Eca-109 cells [6] = assay: Hoechst 33342 staining, fluorescence microscopy; format: cell-based, human; settings: Eca-109, 20 μM and 40 μM, 24 h
Description: With the density of 2 × 10^5 cells per well, Eca-109 cells were cultured in a 6-well plate for 24 h. After that, the medium was replaced by different concentrations of complex 2 and incubated for another 24 h. Then, cells were washed twice with ice-cold PBS, stained with 10 μg/mL Hoechst 33342 for 15 minutes, and photographed by fluorescence microscopy (Nikon Eclipse Ti–E, Nikon Instruments Inc., Japan).

Eca-109 cells [7] = assay: Intracellular ROS level, DCFH-DA probe; format: cell-based, human; settings: Eca-109, 20 μM and 40 μM, 24 h
Description: Eca-109 cells were seeded into a 6-well plate at a density of 2 × 10^5 cells per well and incubated for 24 h. Then, the medium was replaced and incubated with different concentrations of complex 2 for another 24 h. After that, cells were washed twice with ice-cold PBS, stained with 10 μM DCFH-DA for 30 minutes, and photographed by fluorescence microscopy (Nikon Eclipse Ti–E, Nikon Instruments Inc., Japan).

Eca-109 cells [8] = assay: AO/EB double staining, fluorescence microscopy; format: cell-based, human; settings: Eca-109, 20 μM and 40 μM, 24 h
Description: AO/EB double staining was used to observe the changes in apoptotic cells. Eca-109 cells were cultured in a 6-well plate for 24 h. Then, cells were treated with different concentrations of complex 2 for another 24 h. After that, cells were washed twice with ice-cold PBS, stained with 100 μg/mL AO/EB for 10 minutes, and photographed by fluorescence microscopy (Nikon Eclipse Ti–E, Nikon Instruments Inc., Japan).

Bad = assay: Western blot assay, Bad; format: cell-based, human; settings: Eca-109, 24 h, concentration-dependent
Description: as §2

normal human cells HSF = assay: MTT cytotoxicity assay, HSF; format: cell-based; settings: treatment 48 h
Description: as §1

p62 = assay: Western blot assay, p62; format: cell-based, human; settings: Eca-109, 24 h, concentration-dependent
Description: as §2

LC3B-II = assay: Western blot assay, LC3B-II; format: cell-based, human; settings: Eca-109, 24 h, concentration-dependent
Description: as §2

Bcl-xL = assay: Western blot assay, Bcl-xL; format: cell-based, human; settings: Eca-109, 24 h, concentration-dependent
Description: as §2

Eca-109 cells [9] = assay: Autophagy assay, MDC staining; format: cell-based, human; settings: Eca-109, 20 μM and 40 μM, 24 h, compared to the control group
Description: Eca-109 cells were seeded in 6-well plates and incubated at 37 °C in 5% CO2 for 24 h. Then, the medium was replaced with different concentrations of complex 2 for another 24 h. After that, the medium was removed and the cells were washed twice with ice-cold PBS. Then, the cells were stained with MDC (monodansylcadaverine) solution (50 μM) for 15 min, and the data were obtained by flow cytometry (BD FACS Aria III).

## O=C(O)[C@@H](Cc1c[nH]c2ccccc12)N=Cc1c(O)ccc2ccccc12 [Complex L3]
[1]
  IC50: > 80 µM
[2]
  IC50: 48.4 ± 4.99 µM
Breast cancer MCF-7
  IC50: > 80 µM
Gastric cancer SGC-7901
  IC50: 42.7 ± 1.13 µM

## CO.CO.CO.COc1cccc(C=N[C@H](Cc2c[nH]c3ccccc23)C(=O)[O-])c1[O-].[Ni+2].c1cnc2c(c1)ccc1cccnc12 [Complex 2, [Ni (Trp-o-van) (phen) (CH3OH)]•2CH3OH]
Beclin-1
  expression level of Beclin-1: increased
Eca-109 cells [3]; Eca-109, 20 μM
  green fluorescence of the JC-1 monomers (loss of MMP): 6.86%
Eca-109 cells [3]; Eca-109, 40 μM
  green fluorescence of the JC-1 monomers (loss of MMP): 49.5%
Eca-109 cells [4]; Eca-109, 20 μM
  percentage of apoptotic cells: 8.78%
Eca-109 cells [4]; Eca-109, 40 μM
  percentage of apoptotic cells: 29.40%
Eca-109 cells [4]; Eca-109, 24 h, NAC added 1 h before
  percentage of apoptosis cells with NAC pretreatment versus without: reduced
Eca-109 cells [5]; Eca-109
  cell cycle arrest (in words): cell cycle arrest in the G2/M phase
Eca-109 cells [5]; Eca-109, 20 μM
  percentage of cells in S phase: 33.27%
  percentage in the cell at the G2/M phase: 7.21%
  percentage in the cell at the G0/G1 phase: 59.51%
Eca-109 cells [5]; Eca-109, 40 μM
  percentage of cells in S phase: 31.32%
  percentage in the cell at the G2/M phase: 19.84%
  percentage in the cell at the G0/G1 phase: 48.84%
Bcl-2
  expression level of Bcl-2: significantly decreased
Bax
  expression level of Bax: significantly increased
[1]
  IC50: 47.29 ± 0.35 µM
Eca-109 cells [6]
  apoptotic characteristics, Hoechst 33342 staining: apoptotic characteristics were also observed
[2]
  IC50: 18.1 ± 2.39 µM
Eca-109 cells [7]
  intracellular ROS level (DCF fluorescence): increase the intracellular ROS level in a dosage-dependent manner
Eca-109 cells [8]
  morphological changes, AO/EB staining: nuclear shrinkage, chromatin condensation, and late apoptotic cells containing red apoptotic bodies
Breast cancer MCF-7
  IC50: 16.1 ± 1.32 µM
Bad
  expression level of Bad: significantly increased
Normal human cells HSF
  IC50: 23.9 ± 0.74 µM
p62
  expression level of p62: decreased
LC3B-II
  expression level of LC3B-II: increased
Bcl-xL
  expression level of Bcl-xL: significantly decreased
Gastric cancer SGC-7901
  IC50: 15.7 ± 1.46 µM
Eca-109 cells [9]
  MDC staining intensity (autophagy level): increased significantly

## CC(=O)[O-].CC(=O)[O-].[Ni+2] [Ni (CH3COO)2, reference compound]
[1]
  IC50: > 80 µM
[2]
  IC50: 43.5 ± 1.34 µM
Breast cancer MCF-7
  IC50: > 80 µM
Gastric cancer SGC-7901
  IC50: 41.4 ± 0.87 µM

## COc1cccc(C=N[C@H](Cc2c[nH]c3ccccc23)C(=O)O)c1O [Complex L2]
[1]
  IC50: > 80 µM
[2]
  IC50: > 80 µM
Breast cancer MCF-7
  IC50: > 80 µM
Gastric cancer SGC-7901
  IC50: > 80 µM

## Cn1cnc(N)c2ncnc1-2 [Complex 3-MA, 3-methyladenine, reference compound]
Eca-109 cells [4]; Eca-109, 3-MA alone
  toxicity toward cells: nontoxicity

## N.N.[Cl][Pt][Cl] [Cisplatin, reference compound]
[1]
  IC50: 13.9 ± 0.58 µM
[2]
  IC50: 11.9 ± 0.19 µM
Breast cancer MCF-7
  IC50: 12.3 ± 0.75 µM
Normal human cells HSF
  IC50: 17.1 ± 1.31 µM
Gastric cancer SGC-7901
  IC50: 11.7 ± 1.45 µM

## O=C([O-])[C@@H](Cc1c[nH]c2ccccc12)N=Cc1c([O-])ccc2ccccc12.[Ni+2].c1cnc2c(c1)ccc1cccnc12 [Complex 3, [Ni (Trp-naph) (phen) (CH3OH)]]
[1]
  IC50: 28.1 ± 1.34 µM
[2]
  IC50: 21.9 ± 3.19 µM
Breast cancer MCF-7
  IC50: 23.7 ± 0.55 µM
Normal human cells HSF
  IC50: 32.5 ± 1.98 µM
Gastric cancer SGC-7901
  IC50: 24.3 ± 0.95 µM

## O=C1[O][Ni][O]c2ccccc2C=N[C@@H]1Cc1c[nH]c2ccccc12.c1cnc2c(c1)ccc1cccnc12 [Complex 1, [Ni (Trp-sal) (phen) (CH3OH)]]
[1]
  IC50: > 80 µM
[2]
  IC50: 23.9 ± 2.54 µM
Breast cancer MCF-7
  IC50: 75.75 ± 0.41 µM
Normal human cells HSF
  IC50: 60.9 ± 1.76 µM
Gastric cancer SGC-7901
  IC50: 34 ± 2.5 µM

## O=C(O)C(Cc1c[nH]c2ccccc12)N=Cc1ccccc1O (stereo not drawn) [Complex L1]
[1]
  IC50: > 80 µM
[2]
  IC50: > 80 µM
Breast cancer MCF-7
  IC50: > 80 µM
Gastric cancer SGC-7901
  IC50: > 80 µM
